# Patent publication US20240317712A1, “[…] DERIVATIVES AS INHIBITORS OF […]-PEPTIDE CYCLOTRANSFERASE AND […]-PEPTIDE CYCLOTRANSFERASE LIKE PROTEIN” (Boehringer Ingelheim International GmbH, priority 2023, published 2024)
# Tested on: SIRPα signalling induced by A549 cells
# Test: Assay B: SIRPα signalling assay using A549 cells
# Format: cell-based
# Conditions: Homo sapiens, 48 h compound incubation, Jurkat PathHunter SIRPaV1 reporter cells, read-out: Inhibition of SIRPα signalling induced by A549 cells: IC50
# Description: (§1) Two cell types are independently used: the Raji cell line (lymphoblast-like human cell line derived from B lymphocytes from a Burkitt's lymphoma patient in 1963) and A549 cells (adenocarcinoma human alveolar basal epithelial cells).
# (§2) Test compounds were dissolved in 100% DMSO and serially diluted into a white 384-well microtiter cell culture plate (PerkinElmer #60076780 in case of Raji assay; PDL-coated plates Greiner #781945 in case of A549 assay), 5000 Raji cells (ATCC #CC86) or 5000 A549 cells (ATCC #CCL-185) in Assay Complete Cell Plating reagent 30 (DiscoverX 93-0563R30B) were added per well. The assay plate was incubated for 48 h at 37° C., 95% humidity and 5% CO2. 15000 reporter cells (Jurkat PathHunter SIRPaV1, DiscoverX #93-1135C19) were added to each well, and the plate was incubated for 5 h at 37° C., 95% humidity and 5% CO2. Bioassay reagent 1 of the PathHunter Bioassay detection kit (DiscoverX 93-0001) was added to each well of the plate using a multichannel pipette followed by a 15 min incubation at room temperature. Afterwards bioassay reagent 2 was added followed by 60 min incubation at room temperature (incubation in the dark). The analysis of the data was performed using the luminescence signal generated by beta-galactosidase in the PathHunter reporter cell line. The luminescence measurement was done using a Pherastar Multi-Mode Reader. Dose-response curves & IC50 data were calculated with 4-parameter sigmoidal dose response formula.
row,IC50 [nM],Compound
1,11,Cn1cnnc1C1(F)CCN(c2c(C#N)cc(C(F)(F)F)cc2-c2cnc3nn(C(C)(C)C)cc3c2)CC1 [Example 1]
2,7,Cn1cnnc1C1(F)CCN(c2c(C#N)cc(C(F)(F)F)cc2-c2cnc3nc(C(C)(C)C)nn3c2)CC1 [Example 2]
3,12,Cn1cnnc1C1CCN(c2c(C#N)cc(C(F)(F)F)cc2-c2ccc(F)nc2)CC1 [Example 3]
4,12,Cn1cnnc1C1(F)CCN(c2c(C#N)cc(C(F)(F)F)cc2-c2ccc(F)nc2)CC1 [Example 4]
5,21,Cn1cnnc1C1(F)CCN(c2c(C#N)cc(C(F)(F)F)cc2-c2ccnnc2)CC1 [Example 5]
6,16,Cn1cnnc1C1(F)CCN(c2c(C#N)cc(F)cc2-c2ccc(F)nc2)CC1 [Example 6]
7,18,Cn1cnnc1C1CCN(c2c(C#N)cc(F)cc2-c2ccc(F)nc2)CC1 [Example 7]

# Tested on: SIRPα signalling induced by Raji cells
# Test: Assay B: SIRPα signalling assay using Raji cells
# Format: cell-based
# Conditions: Homo sapiens, 48 h compound incubation, Jurkat PathHunter SIRPaV1 reporter cells, read-out: Inhibition of SIRPα signalling induced by Raji cells: IC50
# Description: as §1, §2
row,IC50 [nM],Compound
1,5,Cn1cnnc1C1(F)CCN(c2c(C#N)cc(C(F)(F)F)cc2-c2cnc3nn(C(C)(C)C)cc3c2)CC1 [Example 1]
2,14,Cn1cnnc1C1(F)CCN(c2c(C#N)cc(C(F)(F)F)cc2-c2cnc3nc(C(C)(C)C)nn3c2)CC1 [Example 2]
3,19,Cn1cnnc1C1CCN(c2c(C#N)cc(C(F)(F)F)cc2-c2ccc(F)nc2)CC1 [Example 3]
4,17,Cn1cnnc1C1(F)CCN(c2c(C#N)cc(C(F)(F)F)cc2-c2ccc(F)nc2)CC1 [Example 4]
5,19,Cn1cnnc1C1(F)CCN(c2c(C#N)cc(C(F)(F)F)cc2-c2ccnnc2)CC1 [Example 5]
6,47,Cn1cnnc1C1(F)CCN(c2c(C#N)cc(F)cc2-c2ccc(F)nc2)CC1 [Example 6]
7,48,Cn1cnnc1C1CCN(c2c(C#N)cc(F)cc2-c2ccc(F)nc2)CC1 [Example 7]

# Tested on: not listed separately
# Test: Assay C: Permeability in CACO-2 cells
# Format: in vitro ADME
# Conditions: human, pH 7.2; Caco-2, permeability B−A/permeability A−B
# Description: Caco-2 cells (1-2×10^5 cells/1 cm^2 area) are seeded on filter inserts (Costar transwell polycarbonate or PET filters, 0.4 μm pore size) and cultured (DMEM) for 10 to 25 days. Compounds are dissolved in appropriate solvent (like DMSO, 1-20 mM stock solutions). […] The transport solution (TL) is applied to the apical or basolateral donor side for measuring A-B or B-A permeability (3 filter replicates), respectively. Samples are collected at the start and end of experiment from the donor and at various time intervals for up to 2 hours also from the receiver side for concentration measurement by HPLC-MS/MS or scintillation counting. Sampled receiver volumes are replaced with fresh receiver solution.
# Efflux ratio (ER)=permeability B−A/permeability A−B
row,efflux ratio,Compound
1,3.2,Cn1cnnc1C1(F)CCN(c2c(C#N)cc(C(F)(F)F)cc2-c2cnc3nn(C(C)(C)C)cc3c2)CC1 [Example 1]
2,6.9,Cn1cnnc1C1(F)CCN(c2c(C#N)cc(C(F)(F)F)cc2-c2cnc3nc(C(C)(C)C)nn3c2)CC1 [Example 2]
3,10.4,Cn1cnnc1C1CCN(c2c(C#N)cc(C(F)(F)F)cc2-c2ccc(F)nc2)CC1 [Example 3]
4,1.3,Cn1cnnc1C1(F)CCN(c2c(C#N)cc(C(F)(F)F)cc2-c2ccc(F)nc2)CC1 [Example 4]
5,10.3,Cn1cnnc1C1(F)CCN(c2c(C#N)cc(C(F)(F)F)cc2-c2ccnnc2)CC1 [Example 5]
6,1.6,Cn1cnnc1C1(F)CCN(c2c(C#N)cc(F)cc2-c2ccc(F)nc2)CC1 [Example 6]
7,2.1,Cn1cnnc1C1CCN(c2c(C#N)cc(F)cc2-c2ccc(F)nc2)CC1 [Example 7]

# Same assay, conditions: human; Caco-2, apical to basolateral, pH 7.2
row,Papp A→B [×10⁻⁶ cm/s],Compound
1,25,Cn1cnnc1C1(F)CCN(c2c(C#N)cc(C(F)(F)F)cc2-c2cnc3nn(C(C)(C)C)cc3c2)CC1 [Example 1]
2,8.9,Cn1cnnc1C1(F)CCN(c2c(C#N)cc(C(F)(F)F)cc2-c2cnc3nc(C(C)(C)C)nn3c2)CC1 [Example 2]
3,9,Cn1cnnc1C1CCN(c2c(C#N)cc(C(F)(F)F)cc2-c2ccc(F)nc2)CC1 [Example 3]
4,40.5,Cn1cnnc1C1(F)CCN(c2c(C#N)cc(C(F)(F)F)cc2-c2ccc(F)nc2)CC1 [Example 4]
5,3.3,Cn1cnnc1C1(F)CCN(c2c(C#N)cc(C(F)(F)F)cc2-c2ccnnc2)CC1 [Example 5]
6,44,Cn1cnnc1C1(F)CCN(c2c(C#N)cc(F)cc2-c2ccc(F)nc2)CC1 [Example 6]
7,24,Cn1cnnc1C1CCN(c2c(C#N)cc(F)cc2-c2ccc(F)nc2)CC1 [Example 7]

# Molecular target: T1, QPCTL (Homo sapiens, UniProt Q9NXS2)
# T1 construct: made in house
# T1 sequence (Q9NXS2 whole entry): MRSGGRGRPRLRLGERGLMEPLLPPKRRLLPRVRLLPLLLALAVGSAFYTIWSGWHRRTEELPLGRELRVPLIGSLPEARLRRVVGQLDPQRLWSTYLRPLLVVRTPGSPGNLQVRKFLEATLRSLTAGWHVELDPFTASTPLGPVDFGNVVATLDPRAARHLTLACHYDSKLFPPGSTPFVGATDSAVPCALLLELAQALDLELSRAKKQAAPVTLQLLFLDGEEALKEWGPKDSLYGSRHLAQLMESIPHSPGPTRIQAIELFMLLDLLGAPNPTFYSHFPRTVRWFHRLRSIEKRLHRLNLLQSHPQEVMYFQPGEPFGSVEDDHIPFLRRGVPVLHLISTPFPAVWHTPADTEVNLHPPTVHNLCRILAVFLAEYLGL
# Test: Assay A: biochemical QPCTL activity assay (MALDI-TOF MS, CD47 peptide substrate)
# Conditions: 0.5 nM enzyme, 10 μM CD47 peptide substrate; read-out: Inhibition of QPCTL: IC50
# Description: (§3) QPCT or QPCTL dependent conversion of N-terminal glutamine to pyroglutamate of CD47 was monitored via MALDI-TOF MS. Test compounds were dissolved in 100% DMSO and serially diluted into clear 1,536-well microtiter plates. Enzymatic reactions were set up in assay buffer containing 20 mM Tris pH 7.5, 0.1 mM TCEP, 0.01% BSA, and 0.001% Tween20. […] The plates were incubated for 10 min in a humidified incubator at 24° C. Subsequently, 2.5 µL of CD47 peptide substrate surrogate (^19[…]^33) was added to each well (final concentration: 10 μM for QPCTL/20 μM for QPCT). The plates were mixed for 30 sec at 1,000 rpm and subsequently incubated for 40 min in a humidified incubator at 24° C. […] The plates were sealed with an adhesive foil, mixed for 30 s at 1,000 rpm and stored at room temperature until preparation of the MALDI target plates. MALDI target plates were prepared as described previously. […] QPCT or QPCTL activity was monitored by calculating the ratio between product and internal standard signals followed by normalization to high (100% activity) and low (0% activity) controls. Determination of compound potencies was obtained by fitting the dose-response data to a four-parameter logistical equation.
row,IC50 [nM],Compound
1,1,Cn1cnnc1C1(F)CCN(c2c(C#N)cc(C(F)(F)F)cc2-c2cnc3nn(C(C)(C)C)cc3c2)CC1 [Example 1]
2,2,Cn1cnnc1C1(F)CCN(c2c(C#N)cc(C(F)(F)F)cc2-c2cnc3nc(C(C)(C)C)nn3c2)CC1 [Example 2]
3,3,Cn1cnnc1C1CCN(c2c(C#N)cc(C(F)(F)F)cc2-c2ccc(F)nc2)CC1 [Example 3]
4,2,Cn1cnnc1C1(F)CCN(c2c(C#N)cc(C(F)(F)F)cc2-c2ccc(F)nc2)CC1 [Example 4]
5,2,Cn1cnnc1C1(F)CCN(c2c(C#N)cc(C(F)(F)F)cc2-c2ccnnc2)CC1 [Example 5]
6,3,Cn1cnnc1C1(F)CCN(c2c(C#N)cc(F)cc2-c2ccc(F)nc2)CC1 [Example 6]
7,2,Cn1cnnc1C1CCN(c2c(C#N)cc(F)cc2-c2ccc(F)nc2)CC1 [Example 7]

# Molecular target: T2, QPCT (Homo sapiens, UniProt Q16769)
# T2 construct: purchased Origine (so in the source)
# T2 sequence (Q16769 29-361): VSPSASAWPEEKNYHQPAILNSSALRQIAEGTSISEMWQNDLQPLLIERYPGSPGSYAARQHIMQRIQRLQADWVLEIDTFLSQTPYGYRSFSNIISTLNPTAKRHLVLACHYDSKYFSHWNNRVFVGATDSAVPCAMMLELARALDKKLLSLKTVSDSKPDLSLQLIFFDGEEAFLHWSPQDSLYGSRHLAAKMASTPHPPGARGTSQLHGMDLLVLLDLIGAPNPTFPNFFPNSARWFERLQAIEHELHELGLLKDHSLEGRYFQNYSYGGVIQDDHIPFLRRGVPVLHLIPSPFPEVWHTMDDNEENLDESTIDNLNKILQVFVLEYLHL
# Test: Assay A: biochemical QPCT activity assay (MALDI-TOF MS, CD47 peptide substrate)
# Conditions: 0.5 nM enzyme, 20 μM CD47 peptide substrate; read-out: Inhibition of QPCT: IC50
# Description: as §3
row,IC50 [nM],Compound
1,1,Cn1cnnc1C1(F)CCN(c2c(C#N)cc(C(F)(F)F)cc2-c2cnc3nn(C(C)(C)C)cc3c2)CC1 [Example 1]
2,1,Cn1cnnc1C1(F)CCN(c2c(C#N)cc(C(F)(F)F)cc2-c2cnc3nc(C(C)(C)C)nn3c2)CC1 [Example 2]
3,12,Cn1cnnc1C1CCN(c2c(C#N)cc(C(F)(F)F)cc2-c2ccc(F)nc2)CC1 [Example 3]
4,4,Cn1cnnc1C1(F)CCN(c2c(C#N)cc(C(F)(F)F)cc2-c2ccc(F)nc2)CC1 [Example 4]
5,3,Cn1cnnc1C1(F)CCN(c2c(C#N)cc(C(F)(F)F)cc2-c2ccnnc2)CC1 [Example 5]
6,4,Cn1cnnc1C1(F)CCN(c2c(C#N)cc(F)cc2-c2ccc(F)nc2)CC1 [Example 6]
7,10,Cn1cnnc1C1CCN(c2c(C#N)cc(F)cc2-c2ccc(F)nc2)CC1 [Example 7]
